Test results reported in US6011052A, “Pyrazolone derivatives as MCP-1 antagonists” (Warner-Lambert Company, priority 1997, dated 2000).

Assays:
MCP-1 receptor = target: T1, MCP-1 receptor (Homo sapiens, UniProt P41597); test: MCP-1 binding assay (125I-labeled MCP-1, THP-1 cell membranes); conditions: for inhibition at 10 µM: printed in the IC50 μM column, read-out: Inhibition of MCP-1 Binding, percent @ 10 μM; for IC50: THP-1 membranes, 0.2 nM 125I-MCP-1, 30 minutes at room temperature, read-out: Inhibition of MCP-1 Binding IC50
T1 construct: endogenous in cells; host or cells: THP-1 cells (ATCC TIB 202), selected for increased MCP-1 receptor expression
T1 sequence (P41597 1-360 isoform P41597-2): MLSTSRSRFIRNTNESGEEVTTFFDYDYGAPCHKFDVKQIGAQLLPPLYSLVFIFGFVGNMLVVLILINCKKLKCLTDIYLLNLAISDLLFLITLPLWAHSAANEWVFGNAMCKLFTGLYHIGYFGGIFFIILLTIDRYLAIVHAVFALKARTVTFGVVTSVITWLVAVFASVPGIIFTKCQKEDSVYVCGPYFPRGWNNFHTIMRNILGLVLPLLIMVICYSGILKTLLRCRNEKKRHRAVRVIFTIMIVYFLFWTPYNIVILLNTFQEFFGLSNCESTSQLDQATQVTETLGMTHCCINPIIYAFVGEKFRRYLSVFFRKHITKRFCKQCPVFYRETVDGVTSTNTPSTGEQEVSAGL
Method: Membranes used in the MCP-1 binding assay were prepared from THP-1 cells (human monocytic cell line source--American Type Culture Collection, Tumor Immunology Bank #202, Rockville, Md., accession no. ATCC TIB 202) selected for increased levels of expression of the MCP-1 receptor. Cells were harvested by centrifugation and washed twice in ice-cold PBS (phosphate-buffered saline) and the cell pellet was frozen at -80° C. in some cases. Cells were resuspended in ice-cold lysis buffer 5 mM HEPES (2-(4N-[2-hydroxyethyl] piperazin-1-yl)-N'-(2-ethanesulfonic acid), pH 7.5, 2 mM EDTA (ethylenediaminetetraacetic acid), 5 ug/ml each leupeptin, aprotinin, chymostatin (protease inhibitors), and 100 ug/ml PMSF (phenylmethane sulfonyl fluoride--also a protease inhibitor)) at a concentration of 5×10^7 cells/ml. The cell suspension was dounced 10-15 times using the B pestle (small pestle of tissue grinder--clearance is 0.07 mm; source--Fisher Scientific) on ice. Nuclei and debris were removed by centrifugation at 500-1000×g for 10 minutes at 4° C. The supernatant was transferred to a fresh tube and centrifuged at 25,000×g for 30 minutes at 4° C. The supernatant was aspirated and the pellet was resuspended in freezing buffer (10 mM HEPES, pH 7.5, 300 mM sucrose, 1 ug/ml each leupeptin, aprotinin, chymostatin, and 10 ug/ml PMSF) using a minihomogenizer until all clumps were resolved. Membranes were aliquoted and frozen at minus 70-85° C. until needed. Typical binding assays used 10-20 ug/well of total membrane protein as determined with a standard protein assay (e.g. BioRad, Richmond, Calif.) or: as determined with a Bradford protein assay (e.g. BioRad, Richmond, Calif.).
For binding, different amounts of membranes were included in the binding reaction along with 0.2 nM I^125 -labeled MCP-1 (Amersham, Arlington Heights, Ill.) with or without unlabeled cold competitor MCP-1 (Peprotech, Rocky Hill, N.J.) (at 500 nM). Binding reactions were performed in a final volume of 100 ul in a binding buffer containing 10 mM HEPES, pH 7.2, 1 mM CaCl2, 5 mM MgCl2, 0.5% BSA (bovine serum albumin). After 30 minutes at room temperature, the binding reactions were filtered through GF/C filters (Whatman glass fiber filters, Type C) or GF/B unifilter plates (Parkard) which had been pre-soaked with 0.3% poly ethyleneimine and washed twice with binding buffer containing 0.5 M NaCl. Filters were dried and counted in a Beta-Plate scintillation counter using standard scintillation fluid. Final concentration of compound in the binding assay ranged from 0.05-100 μM. Compounds were dissolved in DMSO (dimethyl sulfoxide). Final concentrations of DMSO in the binding were kept constant at 0.05%.
IC50s were calculated using a 3-parameter logistic fit. Negative control contained same amount of DMSO vehicle asused in wells containing compound. Positive control contained 500 nM cold competitor MCP-1 in DMSO vehicle.

[1] = system: CD3-Blast (MCP-1 mediated chemotaxis); test: MCP-1 mediated CD3-Blast chemotaxis assay (transendothelial migration over ECV304 cells); format: cell-based; conditions: Homo sapiens, ECV-304; for inhibition at 10 µM: range given for multiple replications
Method: Recombinant human MCP-1 was obtained from Peprotech (Rockey Hill, N.J.). […] RBCs were removed by hypotonic lysis. […] The cells are expanded and cultured for up to 3 weeks. […] The endothelial cells used for this assay were the endothelial cell line ECV304, obtained from the ECACE (Porton Downs, UK). Endothelial cells were cultured on 6.5 mm diameter Transwell culture inserts (Costar) with a […] pore size. […] Twenty four hours before the assay, 2×10^5 ECV304 cells were plated onto each innert of the 24 well chemotaxis plate and incubated at 37° C. MCP-1 (diluted in assay medium) with or without compounds, was added to the 24-well tissue culture plates in a final volume of […]. […] The cells that had migrated to the bottom chamber were enumerated using flow cytommetry. […] of the cell suspension from the lower chamber was placed in a tube, and relative cell counts were obtained by acquiring events for a set time period of 30 seconds. […] Background migration was determined by counting cells that migrated in the absence of MCP-1 in the lower chamber. This background migration of cells per 30 second count was substrated from the migration to MCP-1 to obtain specific migration. The percent inhibition by compounds of directed migration was determined by the following formula: 1 minus the specific migration in the presence of MCP-1 and compound, divided by the specific migration in the presence of just MCP-1. [drawing 13]

[2] = system: rat T cells, skin DHR sites; test: T cell recruitment at sites of cutaneous delayed hypersensitivity (DHR) to KLH in rats; format: in vivo, rat (Lewis); conditions: 24 hours
Method: Inbred, approximately 200 gm, male Lewis rats were used in all experiments. Cutaneous delayed hypersensitivity (DHR) was induced as previously described (1). Briefly, rats were sensitized to KLH (keyhole limpet hemocyanis) (Sigma Chemical Co., St. Louis, Mo.) by administering 50 μg KLH in 0.1 ml complete Freund's adjuvant (CFA; Sigma Chemical Co.) into each of 4 subcutaneous sites. After 14 days, DHR was elicited by the challenge of 5 μg KLH in PBS into multiple intradermal sites on the back. Analysis was performed 24 hours after antigen challenge. For each experiment, there were at least three groups of animals of at least four animals in each group. […]
T cell recruitment at sites of DHR was quantified using methods previously described (1-4). […] The cells in the effluent were highly purified (>95%) rat T cells as assessed by anti-rat CD3 (monoclonal antibody KT3, Biosource International, Camarillo, Calif.) immunoreactivity by flow cytometry. […] Skin challenge sites (8 mm in diameter) were counted on a γ counter 24 hours after injection of radiolabeled T cells. Lung, liver, and spleen were also collected and counted as comparative indices for evaluation of input.
Statistical significance was determined using a paired student's t-test. […]

skin DHR sites = test: Histologic analysis of skin DHR sites in rats; format: in vivo, rat (Lewis); conditions: 15 mg/kg per os, compared to sensitized animals given vehicle alone
Method: Inbred, approximately 200 gm, male Lewis rats were used in all experiments. Cutaneous delayed hypersensitivity (DHR) was induced as previously described (1). Briefly, rats were sensitized to KLH (keyhole limpet hemocyanis) (Sigma Chemical Co., St. Louis, Mo.) by administering 50 μg KLH in 0.1 ml complete Freund's adjuvant (CFA; Sigma Chemical Co.) into each of 4 subcutaneous sites. After 14 days, DHR was elicited by the challenge of 5 μg KLH in PBS into multiple intradermal sites on the back. Analysis was performed 24 hours after antigen challenge. For each experiment, there were at least three groups of animals of at least four animals in each group. One group of nonsensitized, naive animals was used as a negative control and received vehicle alone (consisting of 0.5% hydroxypropylmethylcellulose/0.2% Tween 80 in water) per os at the time of challenge. As positive controls, one group of sensitized animals received vehicle alone per os at the time of KLH challenge. A third group consisted of sensitized animals that received compound suspended in vehicle per os at the time of KLH challenge.
For histologic analysis, representative skin specimens were fixed in 10% phosphate-buffered formalin, processed by routine histological techniques, cut at a thickness of […], and sections stained with hematoxylin and eosin.

Nc1c(-c2ccncc2)[nH][nH]c1=O [Example 3]
inhibition at 10 µM (MCP-1 receptor): 95% | inhibition at 10 µM [1]: 5 to 49%

COc1ccc(-c2[nH]nc(O)c2N)cc1 [Example 6]
IC50 (MCP-1 receptor): 1490 nM

NC(=O)c1[nH]n(-c2ccc(Cl)cc2Cl)c(=O)c1N [Example 19]
IC50 (MCP-1 receptor): 6240 nM | IC50 ([1]; unit inferred, read-out: Inhibition of MCP-1 mediated chemotaxis of CD3-Blast, IC50): 480 nM

Cn1[nH]c(=O)c(N)c1-c1ccccc1 [Example 5]
inhibition at 10 µM (MCP-1 receptor): 90% | inhibition at 10 µM [1]: -23 to 48%

Nc1c[nH]nc1O [Example 9]
IC50 (MCP-1 receptor): 1650 nM

Nc1c(-c2ccccc2)n[nH]c1O [Example 4]
IC50 (MCP-1 receptor): 730 nM | inhibition at 10 µM [1]: 58 to 61%

Cc1c(N)c(=O)n(-c2ccccc2)n1C [Example 13]
IC50 (MCP-1 receptor): 2270 nM

Oc1[nH]nc2c1NCCC2 [Example 37]
IC50 (MCP-1 receptor): 5640 nM

Nc1c(C2CCCCC2)[nH][nH]c1=O [Example 1, 4-Amino 5-Cyclohexyl-3-Pyrazolone]
IC50 (MCP-1 receptor): 1270 nM | inhibition at 10 µM [1]: 33 to 70% | statistical significance of inhibition of T cell recruitment in rat DHR ([2]; 15 mg/kg per os at the time of antigen challenge): statistically significant inhibitory effect | inhibition of recruitment of 111In-labeled rat T cells to skin DHR sites ([2]; once per os at the time of antigen challenge, various doses (FIG. 3)): inhibited the recruitment of ^III In-labeled rat T cells to skin DHR sites in a dose-dependent fashion | inflammatory activity of skin sites (histology) (skin DHR sites): attenuated in inflammatory activity | mononuclear cells infiltration in deep dermis (histology) (skin DHR sites): reduced mononuclear cells infiltration in deep dermis

Cc1[nH][nH]c(=O)c1N [Example 10]
inhibition at 10 µM [1]: 25 to 27%
